In patent publication US9040518B2, “Chemical compounds” (GlaxoSmithKline LLC, priority 2010, dated 2015) one finds IC50 data, which are given here for 21 compounds.

Structures can show the parent of a compound that is named as a salt.

This assay addresses ileal bile acid cotransporter (iBAT) (Homo sapiens (Human), UniProt Q12908). Nature of the assay: Human iBAT inhibition: [3H]-taurocholate uptake into HEK293 cells expressing human iBAT. Particulars: HEK293 cells transduced with human iBAT Bacmam virus, 90 minutes at ambient temperature, mean of at least 2 datapoints. Type of assay: cell-based. Here is the method:
Method for Determination of Human iBAT Inhibition:
In preparation for measurement of bile acid uptake into cells expressing the ileal bile acid cotransporter (iBAT), HEK293 cells were cultured in DMEM/F12 supplemented with 10% FBS. Twenty four hours prior to running an experiment, cells were harvested when at a confluence of 80-90%. Cells were seeded in poly-d-lysine coated plates at 50,000 cells per well, and human iBAT Bacmam virus was added such that each well contains 3.67×10e6 pfu (73.4pfu/cell). Each assay plate was covered with Breathe Easy Seal and placed in an incubator for 24 hours to allow expression of the transporter.
On the day of the uptake experiment, 10 mM HEPES was added to Hank's Balanced Salt Solution, and the pH was adjusted to 7.4 with TRIS (HBSSH). The assay buffer was prepared by adding […] [^3H]-taurocholate and 10 μM cold taurocholate to room temperature HBSSH. A separate washing buffer was prepared by adding 10 μM cold taurocholate to HBSSH (˜30 ml per assay plate) and placed on ice. Using 100% DMSO, 8 point, 3-fold dilution curves for each test compound was prepared starting at 200 μM. Similarly, an 8 point dose response curve was prepared of the control compound [(3R,5R)-3-butyl-3-ethyl-7,8-bis(methyloxy)-5-phenyl-2,3,4,5-tetrahydro-1,4-benzothiazepine 1,1-dioxide (Brieaddy, L. E. WO9605188, 1996)] starting at 1.8 mM. Drug plates were created by adding 3 μL of each concentration to a v-bottom 96-well plate then diluted 60-fold with 177 μL of assay buffer. Plates were removed from the incubator and allowed to cool to ambient temperature. Media was aspirated, and wells were washed once with 300 μL HBSSH. 50 μL of each dose response curve concentration was added in triplicate by column to the assay plates, reserving column 10 for control (assay buffer+1.67% DMSO) and columns 11 and 12 for the control compound. Plates were incubated at ambient temperature for 90 minutes then the plates were aspirated then washed 1× with 300 μL of wash buffer. 220 μL of Microscint 20 was added to each well, and the plates were sealed. The amount of [^3H]-taurocholate in cell lysate was quantitated using a microplate scintillation counter on the following day.
IC50's can be generated using the formula, y=(Vmax*x^n)/(K^n+x^n).

Sequence of ileal bile acid cotransporter (iBAT) (Q12908 whole entry): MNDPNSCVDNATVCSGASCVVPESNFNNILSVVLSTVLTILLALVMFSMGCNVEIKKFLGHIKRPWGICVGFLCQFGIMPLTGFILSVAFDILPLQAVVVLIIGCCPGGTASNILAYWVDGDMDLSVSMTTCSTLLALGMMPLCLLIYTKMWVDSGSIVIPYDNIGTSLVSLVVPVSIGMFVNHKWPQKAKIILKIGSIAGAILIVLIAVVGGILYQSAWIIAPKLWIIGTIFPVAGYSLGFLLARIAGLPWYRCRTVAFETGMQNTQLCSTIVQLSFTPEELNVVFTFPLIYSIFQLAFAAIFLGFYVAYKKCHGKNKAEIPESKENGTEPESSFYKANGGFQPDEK

A word on the IC50: it is the midpoint of a concentration-inhibition curve. A low value points to greater potency. `CCCC[C@]1(CC)CS(=O)(=O)c2cc(CNCC(=O)O)c(OC)cc2[C@@H](c2ccccc2)N1` [Example 25, N-{[(3R,5R)-3-butyl-3-ethyl-7-(methyloxy)-1,1-dioxido-5-phenyl-2,3,4,5-tetrahydro-1,4-benzothiazepin-8-yl]methyl}glycine] had an IC50 of 6 nM.
`CCCC[C@]1(CC)CS(=O)(=O)c2cc(CNC(CC(=O)O)CC(=O)O)c(OC)cc2[C@@H](c2ccccc2)N1` [Example 26, 3-({[(3R,5R)-3-butyl-3-ethyl-7-(methyloxy)-1,1-dioxido-5-phenyl-2,3,4,5-tetrahydro-1,4-benzothiazepin-8-yl]methyl}amino)pentanedioic acid] yielded an IC50 of 43 nM. Compared with the last compound, the IC50 is about 7.2-fold higher.
Take `CCCC[C@]1(CC)CS(=O)(=O)c2cc(CN[C@@H](CC(=O)O)C(=O)O)c(OC)cc2[C@@H](c2ccccc2)N1` [Example 27, N-{[(3R,5R)-3-butyl-3-ethyl-7-(methyloxy)-1,1-dioxido-5-phenyl-2,3,4,5-tetrahydro-1,4-benzothiazepin-8-yl]methyl}-L-aspartic acid trifluoroacetate salt]: the IC50 came out at 47 nM.
For `CCCC[C@]1(CC)CS(=O)(=O)c2cc(CN[C@H](CC(=O)O)C(=O)O)c(OC)cc2[C@@H](c2ccccc2)N1` [Example 28, N-{[(3R,5R)-3-butyl-3-ethyl-7-(methyloxy)-1,1-dioxido-5-phenyl-2,3,4,5-tetrahydro-1,4-benzothiazepin-8-yl]methyl}-D-aspartic acid trifluoroacetate salt], the IC50 came to 55 nM.
The compound `CCCC[C@]1(CC)CS(=O)(=O)c2cc(CN(C)CCC(=O)O)c(OC)cc2[C@@H](c2ccccc2)N1` [Example 29, N-{[(3R,5R)-3-butyl-3-ethyl-7-(methyloxy)-1,1-dioxido-5-phenyl-2,3,4,5-tetrahydro-1,4-benzothiazepin-8-yl]methyl}-N-methyl-β-alanine trifluoroacetate salt] gave an IC50 of 367 nM.
In turn, `CCCC[C@]1(CC)CS(=O)(=O)c2cc(CNCCCC(=O)O)c(OC)cc2[C@@H](c2ccccc2)N1` [Example 30, 4-({[(3R,5R)-3-butyl-3-ethyl-7-(methyloxy)-1,1-dioxido-5-phenyl-2,3,4,5-tetrahydro-1,4-benzothiazepin-8-yl]methyl}amino)butanoic acid trifluoroacetate salt] gave an IC50 of 1290 nM.
As for `CCCC[C@]1(CC)CS(=O)(=O)c2cc(CN3CCCC3=O)c(OC)cc2[C@@H](c2ccccc2)N1` [Example 31, 1-{[(3R,5R)-3-butyl-3-ethyl-7-(methyloxy)-1,1-dioxido-5-phenyl-2,3,4,5-tetrahydro-1,4-benzothiazepin-8-yl]methyl}-2-pyrrolidinone trifluoroacetate salt], the figure is 407 nM; as for `CCCC[C@]1(CC)CS(=O)(=O)c2cc(CNC(C)(C)C(=O)O)c(OC)cc2[C@@H](c2ccccc2)N1` [Example 32, N-{[(3R,5R)-3-butyl-3-ethyl-7-(methyloxy)-1,1-dioxido-5-phenyl-2,3,4,5-tetrahydro-1,4-benzothiazepin-8-yl]methyl}-2-methylalanine trifluoroacetate salt], 190 nM.
Turning to `CCCC[C@]1(CC)CS(=O)(=O)c2cc(CNCCP(=O)(O)O)c(OC)cc2[C@@H](c2ccccc2)N1` [Example 33, [2-({[(3R,5R)-3-butyl-3-ethyl-7-(methyloxy)-1,1-dioxido-5-phenyl-2,3,4,5-tetrahydro-1,4-benzothiazepin-8-yl]methyl}amino)ethyl]phosphonic acid trifluoroacetate salt], 2700 nM corresponded to half-maximal inhibition (IC50).
`CCCC[C@]1(CC)CS(=O)(=O)c2cc(CNCCP(=O)(O)OCC)c(OC)cc2[C@@H](c2ccccc2)N1` [Example 34, ethyl hydrogen [2-({[(3R,5R)-3-butyl-3-ethyl-7-(methyloxy)-1,1-dioxido-5-phenyl-2,3,4,5-tetrahydro-1,4-benzothiazepin-8-yl]methyl}amino)ethyl]phosphonate trifluoroacetate salt] came in with an IC50 of 2790 nM.
`CCCC[C@]1(CC)CS(=O)(=O)c2cc(CNCCS(=O)(=O)O)c(OC)cc2[C@@H](c2ccccc2)N1` [Example 35, 2-({[(3R,5R)-3-butyl-3-ethyl-7-(methyloxy)-1,1-dioxido-5-phenyl-2,3,4,5-tetrahydro-1,4-benzothiazepin-8-yl]methyl}amino)ethanesulfonic acid ammonium salt] returned an IC50 of 54 nM.
As for `CCCC[C@]1(CC)CS(=O)(=O)c2cc(CN(CCS(=O)(=O)O)CCS(=O)(=O)O)c(OC)cc2[C@@H](c2ccccc2)N1` [Example 36, 2,2′-({[(3R,5R)-3-butyl-3-ethyl-7-(methyloxy)-1,1-dioxido-5-phenyl-2,3,4,5-tetrahydro-1,4-benzothiazepin-8-yl]methyl}imino)diethanesulfonic acid trifluoroacetate salt], the figure is 365 nM; as for `CCCC[C@]1(CC)CS(=O)(=O)c2cc(CNC(=O)CS(=O)(=O)O)c(OC)cc2[C@@H](c2ccccc2)N1` [Example 37, 2-({[(3R,5R)-3-butyl-3-ethyl-7-(methyloxy)-1,1-dioxido-5-phenyl-2,3,4,5-tetrahydro-1,4-benzothiazepin-8-yl]methyl}amino)-2-oxoethanesulfonic acid], 9 nM; as for `CCCC[C@]1(CC)CS(=O)(=O)c2cc(CNC(=O)CP(=O)(O)O)c(OC)cc2[C@@H](c2ccccc2)N1` [Example 38, [2-({[(3R,5R)-3-butyl-3-ethyl-7-(methyloxy)-1,1-dioxido-5-phenyl-2,3,4,5-tetrahydro-1,4-benzothiazepin-8-yl]methyl}amino)-2-oxoethyl]phosphonic acid trifluoroacetate salt], 249 nM.
Consider `CCCC[C@]1(CC)CS(=O)(=O)c2cc(CNC(=O)CNCC(=O)O)c(OC)cc2[C@@H](c2ccccc2)N1` [Example 39, N-[2-({[(3R,5R)-3-butyl-3-ethyl-7-(methyloxy)-1,1-dioxido-5-phenyl-2,3,4,5-tetrahydro-1,4-benzothiazepin-8-yl]methyl}amino)-2-oxoethyl]glycine trifluoroacetate salt], for which the IC50 was determined as 619 nM. Against the preceding compound, the IC50 is about 2.5-fold higher.
In turn, `CCCC[C@]1(CC)CS(=O)(=O)c2cc(CNC(=O)CNCCP(=O)(O)O)c(OC)cc2[C@@H](c2ccccc2)N1` [Example 40, (2-{[2-({[(3R,5R)-3-butyl-3-ethyl-7-(methyloxy)-1,1-dioxido-5-phenyl-2,3,4,5-tetrahydro-1,4-benzothiazepin-8-yl]methyl}amino)-2-oxoethyl]amino}ethyl)phosphonic acid trifluoroacetate salt] registered an IC50 of 4670 nM.
In turn, `CCCC[C@]1(CC)CS(=O)(=O)c2cc(CNC(=O)CNC(CC(=O)O)CC(=O)O)c(OC)cc2[C@@H](c2ccccc2)N1` [Example 41, 3-{[2-({[(3R,5R)-3-butyl-3-ethyl-7-(methyloxy)-1,1-dioxido-5-phenyl-2,3,4,5-tetrahydro-1,4-benzothiazepin-8-yl]methyl}amino)-2-oxoethyl]amino}pentanedioic acid trifluoroacetate salt] showed an IC50 of 3330 nM.
In the case of `CCCC[C@]1(CC)CS(=O)(=O)c2cc(CNC(=O)CCS(=O)(=O)O)c(OC)cc2[C@@H](c2ccccc2)N1` [Example 42, 3-({[(3R,5R)-3-butyl-3-ethyl-7-(methyloxy)-1,1-dioxido-5-phenyl-2,3,4,5-tetrahydro-1,4-benzothiazepin-8-yl]methyl}amino)-3-oxo-1-propanesulfonic], the IC50 came to 128 nM. Against the preceding compound, the IC50 is about 26-fold lower.
In the case of `CCCC[C@]1(CC)CS(=O)(=O)c2cc(CNC(CC(=O)O)CC(=O)O)c(OC)cc2[C@H](c2ccccc2)N1` [Example 43, 3-({[(3R,5S)-3-butyl-3-ethyl-7-(methyloxy)-1,1-dioxido-5-phenyl-2,3,4,5-tetrahydro-1,4-benzothiazepin-8-yl]methyl}amino)pentanedioic acid], the IC50 came out at 7680 nM. This IC50 is about 60-fold higher than that of the compound before.
Take `CCCC[C@]1(CC)CS(=O)(=O)c2cc(CNCC(=O)O)c(OC)cc2[C@H](c2ccccc2)N1` [Example 44, N-{[(3R,5S)-3-butyl-3-ethyl-7-(methyloxy)-1,1-dioxido-5-phenyl-2,3,4,5-tetrahydro-1,4-benzothiazepin-8-yl]methyl}glycine trifluoroacetate salt]: half-maximal inhibition (IC50) required 648 nM.
With `CCCC[C@]1(CC)CS(=O)(=O)c2cc(CP(=O)(O)O)c(OC)cc2[C@H](c2ccccc2)N1` [Example 45, {[(3R,5S)-3-butyl-3-ethyl-7-(methyloxy)-1,1-dioxido-5-phenyl-2,3,4,5-tetrahydro-1,4-benzothiazepin-8-yl]methyl}phosphonic acid trifluoroacetate salt], inhibition was half-maximal at 1950 nM (IC50).
